In patent US9024041B2, “P38 MAP kinase inhibitors” (Respivert Ltd., priority 2010, dated 2015):
pEC50, pIC50: −log10 of the molar value.

Assays:
[1] = system: LPS-induced TNFα release in THP-1 cells; assay: LPS-induced TNFα release in THP-1 cells; assay type: cell-based; conditions: Homo sapiens, 3 μg/mL LPS, 4 hr
In short: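 Human monocytic cells were stimulated with 3 μg/mL E. coli LPS for 4 hr. Supernatant TNFα was measured by sandwich ELISA. Inhibition was taken relative to vehicle control, and IC50 derived from the concentration-response curve.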

[2] = system: Poly I:C-induced ICAM-1 expression in BEAS2B cells; assay: Poly I:C-induced ICAM-1 induction in BEAS2B cells; assay type: cell-based; conditions: Homo sapiens, BEAS-2B, poly I:C 1 μg/mL, 18 hr, read-out: PolyI:C/ICAM1 IC50 BEAS2B
In short: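 Human bronchial epithelial BEAS2B cells were pre-incubated with compound for 2 h, then transfected with poly I:C at 1 μg/mL. Surface ICAM-1 was measured 18 h later by cell-based ELISA (OD450–655), normalised to crystal-violet cell number (OD595). IC50 was taken from the concentration–response curve against vehicle.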

[3] = system: LPS-induced IL-8 release in d-U937 cells; assay: LPS-induced IL-8 release in d-U937 cells; assay type: cell-based; conditions: Homo sapiens, dU937, 0.1 μg/mL LPS, 4 hr
In short: (§1)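 U937 cells differentiated with PMA (100 ng/mL, 48–72 hr), pre-incubated with compound 2 hr, then stimulated with 0.1 μg/mL E. coli O111:B4 LPS for 4 hr. Supernatant TNFα and IL-8 measured by sandwich ELISA; REC50 (TNFα) and IC50 (IL-8 inhibition vs vehicle) taken from concentration-response curves.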

[4] = system: LPS-induced TNFα release in d-U937 cells; assay: LPS-induced TNFα release in d-U937 cells; assay type: cell-based; conditions: Homo sapiens, dU937, 4 h; read-out: LPS/TNFα REC50 d-U937
In short: as §1

[5] = molecular target: T1, Recombinant, phosphorylated p38 MAPKγ (MAPK12:Invitrogen) (Homo sapiens, UniProt P53778); assay: p38 MAPKγ enzyme inhibition assay (FRET, Z-LYTE); assay type: biochemical; conditions: 2 hr pre-incubation, ATP 100 μM; read-out: Enzyme Inhibition IC50 p38γ
T1 construct: purchased Invitrogen
T1 sequence (P53778 1-367): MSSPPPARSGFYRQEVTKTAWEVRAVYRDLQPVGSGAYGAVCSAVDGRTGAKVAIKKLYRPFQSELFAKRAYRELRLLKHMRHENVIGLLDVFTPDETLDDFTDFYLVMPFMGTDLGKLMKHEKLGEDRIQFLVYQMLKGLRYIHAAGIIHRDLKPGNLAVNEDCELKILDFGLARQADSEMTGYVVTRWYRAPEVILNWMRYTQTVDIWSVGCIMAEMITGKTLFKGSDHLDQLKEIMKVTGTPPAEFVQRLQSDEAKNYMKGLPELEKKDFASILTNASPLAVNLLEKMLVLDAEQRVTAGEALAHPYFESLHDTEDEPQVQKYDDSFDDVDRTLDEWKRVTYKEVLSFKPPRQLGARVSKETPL

[6] = molecular target: T2, p38 MAPKα isoform (MAPK14: Invitrogen) (Homo sapiens, UniProt Q16539); assay: p38 MAPKα enzyme inhibition assay (FRET, Z-LYTE, via MAPKAP-K2 activation); assay type: biochemical; conditions: 2 hr pre-incubation, ATP 10.0 μM; read-out: Enzyme Inhibition IC50 p38α
T2 construct: purchased Invitrogen
T2 sequence (Q16539 whole entry, canonical isoform): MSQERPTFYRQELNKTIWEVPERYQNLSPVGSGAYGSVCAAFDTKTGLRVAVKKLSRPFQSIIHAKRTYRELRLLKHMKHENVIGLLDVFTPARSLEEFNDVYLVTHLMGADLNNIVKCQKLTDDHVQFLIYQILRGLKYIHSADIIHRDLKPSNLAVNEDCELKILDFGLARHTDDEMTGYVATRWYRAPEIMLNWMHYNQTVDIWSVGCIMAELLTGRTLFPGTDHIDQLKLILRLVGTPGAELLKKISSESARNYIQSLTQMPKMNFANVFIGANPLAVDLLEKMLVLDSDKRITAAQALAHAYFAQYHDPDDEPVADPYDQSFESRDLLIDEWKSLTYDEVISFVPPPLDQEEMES

[7] = system: Differentiated U937 cells; assay: MTT assay: cell viability on exposure to test compounds; assay type: cell-based, human; conditions: percentage loss of cell viability vs vehicle, 1 μg/mL; for MTT Assay (Viability) 4 h d-U937: 5% FCS; for MTT Assay (Viability) 24 h d-U937: 10% FCS
In short: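 Differentiated U937 cells were pre-incubated with compound for either 4 h in 5% FCS or 24 h in 10% FCS, then given MTT for 1 h. Formazan was dissolved in DMSO and read at 550 nm. Viability loss is expressed as % versus 0.5% DMSO vehicle, so an apparent gain appears as a negative value.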

pIC50 [1]	pIC50 [3]	pEC50 [4]	pIC50 [5]	pIC50 [6]	SMILES	pIC50 [2]	MTT Assay (Viability) 4 h d-U937 [7] [%]	MTT Assay (Viability) 24 h d-U937 [7] [%]
8.64	8.70	9.40	6.98	7.44	CNC(=O)Nc1cc(Oc2ccc(NC(=O)Nc3cc(C(C)(C)C)nn3-c3ccc(S(C)(=O)=O)cc3)c3ccccc23)ccn1 [Example 46, 1-(3-tert-butyl-1-(4-(methylsulfonyl)phenyl)-1H-pyrazol-5-yl)-3-(4-((2-(3-methylureido)pyridin-4-yl)oxy)naphthalen-1-yl)urea]	7.39	−12.6	−47.9
7.76	7.61	7.77	6.58	8.08	CC(C)(C)c1cc(NC(=O)Nc2ccc(Oc3ccnc(NC(=O)NC4CC4)c3)c3ccccc23)n(-c2ccc(S(C)(=O)=O)cc2)n1 [Example 47, 1-(3-tert-butyl-1-(4-(methylsulfonyl)phenyl)-1H-pyrazol-5-yl)-3-(4-(2-(3-cyclopropylureido)pyridin-4-yloxy)naphthalen-1-yl)urea]	8.62	3.5	−21.7
8.47	8.30	8.62	6.91	9.22	CN1CCN(C(=O)Nc2cc(Oc3ccc(NC(=O)Nc4cc(C(C)(C)C)nn4-c4ccc(S(C)(=O)=O)cc4)c4ccccc34)ccn2)CC1 [Example 48, N-(4-(4-(3-(3-tert-butyl-1-(4-(methylsulfonyl)phenyl)-1H-pyrazol-5-yl)ureido)naphthalen-1-yloxy)pyridin-2-yl)-4-methylpiperazine-1-carboxamide]	7.49	−16.1	−11.3
9.10	9.10	9.30	6.73	8.28	CC(C)(C)c1cc(NC(=O)Nc2ccc(Oc3ccnc(NC(=O)N4CCOCC4)c3)c3ccccc23)n(-c2ccc(S(C)(=O)=O)cc2)n1 [Example 49, N-(4-(4-(3-(3-tert-butyl-1-(4-(methylsulfonyl)phenyl)-1H-pyrazol-5-yl)ureido)naphthalen-1-yloxy)pyridin-2-yl)morpholine-4-carboxamide]	7.97	−15.9	11.8
7.88	6.56	8.35	7.41	8.02	COCC(=O)Nc1cc(Oc2ccc(NC(=O)Nc3cc(C(C)(C)C)nn3-c3ccc(S(C)(=O)=O)cc3)c3ccccc23)ncn1 [Example 50, N-(6-(4-(3-(3-tert-butyl-1-(4-(methylsulfonyl)phenyl)-1H-pyrazol-5-yl)ureido)naphthalen-1-yloxy)pyrimidin-4-yl)-2-methoxyacetamide]	7.00	−8.0	−10.4
8.09	< 5.79	7.79	6.48	8.72	COCC(=O)Nc1cc(Oc2ccc(NC(=O)Nc3cc(C(C)(C)C)nn3-c3ccc(O)c(Cl)c3)c3ccccc23)ccn1 [Example 52, N-(4-(4-(3-(3-tert-butyl-1-(3-chloro-4-hydroxyphenyl)-1H-pyrazol-5-yl)ureido)naphthalen-1-yloxy)pyridin-2-yl)-2-methoxyacetamide]	8.24	8.5	−48.8
8.92	7.70	9.40	7.08	7.52	COCC(=O)Nc1cc(Oc2ccc(NC(=O)Nc3cc(C(C)(C)C)nn3-c3cc(OC)cc(OC)c3)c3ccccc23)ccn1 [Example 53, N-(4-(4-(3-(3-tert-butyl-1-(3,5-dimethoxyphenyl)-1H-pyrazol-5-yl)ureido)naphthalen-1-yloxy)pyridin-2-yl)-2-methoxyacetamide]	7.56	3.1	−0.9
8.89	8.57	9.70	6.70	8.04	COCC(=O)Nc1cc(Oc2ccc(NC(=O)Nc3cc(C(C)(C)C)nn3-c3ccc(OC)c(Cl)c3)c3ccccc23)ccn1 [Example 54, N-(4-(4-(3-(3-tert-butyl-1-(3-chloro-4-methoxyphenyl)-1H-pyrazol-5-yl)ureido)naphthalen-1-yloxy)pyridin-2-yl)-2-methoxyacetamide]	9.15	0.1	−7.5
8.37	8.26	9.10	6.99	7.83	COCC(=O)Nc1cc(Oc2ccc(NC(=O)Nc3cc(C(C)(C)C)nn3-c3ccc(Cl)c(Cl)c3)c3ccccc23)ccn1 [Example 55, N-(4-(4-(3-(3-tert-butyl-1-(3,4-dichlorophenyl)-1H-pyrazol-5-yl)ureido)naphthalen-1-yloxy)pyridin-2-yl)-2-methoxyacetamide]	7.83	−16.1	−71.1
8.80	7.76	9.52	6.61	> 9.70	COCC(=O)Nc1cc(Oc2ccc(NC(=O)Nc3cc(C(C)(C)C)nn3-c3ccc(C)nc3)c3ccccc23)ccn1 [Example 57, N-(4-(4-(3-(3-tert-butyl-1-(6-methylpyridin-3-yl)-1H-pyrazol-5-yl)ureido)naphthalen-1-yloxy)pyridin-2-yl)-2-methoxyacetamide]	8.07	−3.4	76.0
6.41	7.34	7.98	6.48	7.97	COCC(=O)Nc1cc(COc2ccc(NC(=O)Nc3cc(C(C)(C)C)nn3-c3ccc(C)cc3)c(C)c2C)ccn1 [Example 58, N-(4-((4-(3-(3-tert-butyl-1-(p-tolyl)-1H-pyrazol-5-yl)ureido)-2,3-dimethylphenoxy)methyl)pyridin-2-yl)-2-methoxyacetamide]	6.32	−2.8	12.0
6.62	6.78	6.98	5.38	7.90	COCC(=O)Nc1cc(COc2ccc(NC(=O)Nc3cc(C(C)(C)C)nn3-c3ccc(OC)cc3)c(C)c2C)ccn1 [Example 59, N-(4-((4-(3-(3-tert-butyl-1-(4-methoxyphenyl)-1H-pyrazol-5-yl)ureido)-2,3-dimethylphenoxy)methyl)pyridin-2-yl)-2-methoxy acetamide]	6.56	11.3	0.9
6.91	6.44	7.61	< 4.76	7.89	CNC(=O)Nc1cc(COc2ccc(NC(=O)Nc3cc(C(C)(C)C)nn3-c3ccc(OC)cc3)c(C)c2C)ccn1 [Example 60, 1-(4-((4-(3-(3-tert-butyl-1-(4-methoxyphenyl)-1H-pyrazol-5-yl)ureido)-2,3-dimethylphenoxy)methyl)pyridin-2-yl)-3-methylurea]	< 6.76	17.2	−0.2
